Experimental findings from BindingDB's records for patent US20240190893 (Janssen Pharmaceutica, 2024) are described below.

For this assay, the target named is Induced myeloid leukemia cell differentiation protein Mcl-1 (Homo sapiens, UniProt Q07820). The assay can be described thus: Terbium labeled Myeloid Cell Leukemia 1 (Mcl-1) homogeneous time-resolved fluorescence (HTRF) binding assay. An excerpt: This assay evaluated inhibition of the BH3 domain: Mcl-1 interaction by measuring the displacement of Cy5-labeled BIM BH3 peptide (H2N (C/Cy5Mal) WIAQELRRIGDEFN-OH) in the HTRF assay format.

Each structure is given as a SMILES string. Several values for one entry are separate records, joined by “and”; a condition that tells them apart may be missing. Identical values can stand only once.

Chain of Induced myeloid leukemia cell differentiation protein Mcl-1 (Q07820 whole entry, the tested form may be a part): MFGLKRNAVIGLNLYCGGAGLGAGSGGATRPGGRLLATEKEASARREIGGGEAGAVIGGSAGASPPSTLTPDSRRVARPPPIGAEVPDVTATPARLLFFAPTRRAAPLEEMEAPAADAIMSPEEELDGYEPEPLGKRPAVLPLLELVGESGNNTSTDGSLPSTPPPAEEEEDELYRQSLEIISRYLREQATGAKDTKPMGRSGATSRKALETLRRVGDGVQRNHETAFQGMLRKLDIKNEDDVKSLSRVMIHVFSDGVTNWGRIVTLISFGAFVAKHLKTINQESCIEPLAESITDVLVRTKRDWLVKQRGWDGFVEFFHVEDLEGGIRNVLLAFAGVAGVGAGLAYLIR

`Cc1nn(C)c(C)c1-c1c(Cl)ccc2c3c(C(=O)O)n(c12)CCCSCc1cc(n(C)n1)CSc1cc(c2ccccc2c1)OCCC3` [US20240190893, Compound 19]: the inhibition constant Ki is 1.44 nM and 0.249 nM.
